Measured values: patent publication US10195185B2, “3-(1H-imidazo[4,5-C]pyridin-2-yl)-1H-pyrazolo[4,3-B]pyridines and therapeutic uses thereof” (Samumed, LLC, priority 2015, dated 2019)

Tests used:
[1] = test system: primary human mesenchymal stem cells (hMSCs); assay: Induction of chondrogenesis in hMSCs (nodule area, Rhodamine B / Nile Red); type: cell-based; conditions: TGF-β3 as positive control; for Emax: read-out: Max. Activity as % TGF-β3 activity; for EC50: concentration required to induce 50% levels of chondrogenesis, read-out: Conc (nM) of 50% TGF-β3 activity
Method: Representative compounds were screened using primary human mesenchymal stem cells (hMSCs) to determine their ability to induce chondrogenesis (process by which cartilage is developed).
Primary human mesenchymal stem cells (hMSCs) were purchased from Lonza (Walkersville, Md.) and expanded in Mesenchymal Stem Cell Growth Media (Lonza). Cells between passage 3 and 6 were used for the experiments.
Each compound was dissolved in DMSO as a 10 mM stock and used to prepare compound source plates. For the 96 well assay, serial dilution (1:3, 6-point dose-response curves from 2700 nM to 10 nM) and compound transfer was performed using the ECHO 550 (Labcyte, Sunnyvale, Calif.) into 96-well clear bottom assay plates (Greiner Bio-One) with appropriate DMSO backfill for a final DMSO concentration of 0.03%. hMSCs were plated at 20,000 cells/well in 250 μL/well Incomplete Chondrogenic Induction Medium (Lonza; DMEM, dexamethasone, ascorbate, insulin-transferrin-selenium [ITS supplement], gentamycin-amphotericin [GA-1000], sodium pyruvate, proline and L-glutamine). TGF-β3 (10 ng/mL) was used as a positive control for differentiation while negative control wells were treated with 75 nL DMSO for normalization and calculating EC50 values. For the 384 well assay, serial dilution (1:3, 8-point dose-response curves from 5000 nM to 2.2 nM) and compound transfer was performed using the ECHO 550 (Labcyte, Sunnyvale, Calif.) into 384-well clear bottom assay plates (Greiner Bio-One) with appropriate DMSO backfill for a final DMSO concentration of 0.03%. hMSCs were plated at 8,000 cells/well in 80 μL/well Incomplete Chondrogenic Induction Medium (Lonza; DMEM, dexamethasone, ascorbate, insulin-transferrin-selenium [ITS supplement], gentamycin-amphotericin [GA-1000], sodium pyruvate, proline and L-glutamine). TGF-β3 (10 ng/mL) was used as a positive control for differentiation while negative control wells were treated with 25 nL DMSO for normalization and calculating EC50 values. Cells were incubated at 37° C. and 5% CO2 for 6 days. To image chondrogenic nodules, the cells were fixed using 4% formaldehyde (Electron Microscopy Sciences), and stained with 2 μg/mL Rhodamine B (Sigma-Aldrich) and 20 μM Nile Red (Sigma-Aldrich) [Johnson K., et. al, A Stem Cell-Based Approach to Cartilage Repair, Science, (2012), 336(6082), 717-721]. The nodules imaged (25 images per well for 96 well plates and 9 images per well for 384 well plates at 10× magnification) by excitation at 531 nm and emission at 625 nm and quantified using the CellInsight CX5 (Thermo Scientific). Area of nodules in each well was normalized to the average of 3 DMSO treated wells on the same plate using Excel (Microsoft Inc.). The normalized averages (fold change over DMSO) of 2 or 3 replicate wells for each compound concentration were calculated. Due to solubility limitations of some of the compounds, curve fitting was incomplete leading to inaccurate EC50 determinations.
Using TGF-β3 as a positive control, the concentration of representative compounds required to induce 50% levels of chondrogenesis is reported. In addition, the maximum activity of each compound and the respective dose that each compound reached maximum chondrogenesis activity is reported.

[2] = test system: Primary human fibroblasts derived from IPF patients (LL29 cells) treated with TGF-β1; assay: Inhibition of the fibrotic process: αSMA staining in TGF-β1 treated fibroblasts; type: cell-based; conditions: Fibroblast, 96 h, LL29 fibroblasts treated with TGF-β1, 4 days; for inhibition at 10 µM: read-out: percent inhibition in brackets beside EC50 >10 μM
How it was run: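 LL29 cells plated in F12 with 1% FBS, compounds added as 11-point 1:2 series (10 μM to 1.87 nM, 0.1% DMSO), then TGF-β1 20 ng/mL; 4 days at 37 °C. Fixed, αSMA immunostained, imaged; SYTOX-positive cells excluded. % αSMA-positive cells normalized to TGF-β1 wells; EC50 by non-linear regression, or % inhibition at 10 μM.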

Row | SMILES | Emax [1] [%] | EC50 [2] [nM] | EC50 [1] [nM] | inhibition at 10 µM [2] [%]
1 | CN(C)c1cncc(-c2ccc3[nH]nc(-c4nc5c(N6CCCCC6)nccc5[nH]4)c3n2)c1 [Compound 175, N,N-Dimethyl-5-(3-(4-(piperidin-1-yl)-1H-imidazo[4,5-c]pyridin-2-yl)-1H-pyrazolo [4,3-b]pyridin-5-yl)pyridin-3-amine] | 48 | 2400 |  | 
2 | CN(C)CC(=O)Nc1cncc(-c2ccc3[nH]nc(-c4nc5c(-c6cccc(F)c6)nccc5[nH]4)c3n2)c1 [Compound 969, 2-(Dimethylamino)-N-(5-(3-(4-(3-fluorophenyl)-1H-imidazo[4,5-c]pyridin-2-yl)-1H-pyrazolo[4,3-b]pyridin-5-yl)pyridin-3-yl)acetamide] | 63 | 1630 | 7 | 
3 | c1cncc(-c2ccc3[nH]nc(-c4nc5c(-c6cccnc6)nccc5[nH]4)c3n2)c1 [Compound 88, 5-(Pyridin-3-yl)-3-(4-(pyridin-3-yl)-1H-imidazo[4,5-c]pyridin-2-yl)-1H-pyrazolo[4,3-b]pyridine] | 70 | > 10000 | 100 | 22.2
4 | COc1cccc(-c2nccc3[nH]c(-c4n[nH]c5ccc(-c6cccnc6)nc45)nc23)c1 [Compound 994, 3-(4-(3-Methoxyphenyl)-1H-imidazo[4,5-c]pyridin-2-yl)-5-(pyridin-3-yl)-1H-pyrazolo[4,3-b]pyridine] | 51 | 4710 | 30 | 
5 | O=C(Cc1ccccc1)Nc1cncc(-c2ccc3[nH]nc(-c4nc5c(-c6ccncc6)nccc5[nH]4)c3n2)c1 [Compound 122, 2-phenyl-N-(5-(3-(4-(pyridin-4-yl)-1H-imidazo[4,5-c]pyridin-2-yl)-1H-pyrazolo[4,3-b]pyridin-5-yl)pyridin-3-yl)acetamide] | 74 | > 10000 | 30 | 0
6 | CCCC(=O)Nc1cncc(-c2ccc3[nH]nc(-c4nc5c(-c6ccncc6)nccc5[nH]4)c3n2)c1 [Compound 129, N-(5-(3-(4-(Pyridin-4-yl)-1H-imidazo[4,5-c]pyridin-2-yl)-1H-pyrazolo[4,3-b]pyridin-5-yl)pyridin-3-yl)butyramide] | 70 | > 10000 | 300 | 0
7 | O=C(Nc1cncc(-c2ccc3[nH]nc(-c4nc5c(-c6ccc(Cl)s6)nccc5[nH]4)c3n2)c1)C1CCC1 [Compound 1056, N-(5-(3-(4-(5-Chlorothiophen-2-yl)-1H-imidazo[4,5-c]pyridin-2-yl)-1H-pyrazolo[4,3-b]pyridin-5-yl)pyridin-3-yl)cyclobutanecarboxamide] | 60 | 2240 | 30 | 
8 | CC(C)Nc1cncc(-c2ccc3[nH]nc(-c4nc5c(-c6cccnc6)nccc5[nH]4)c3n2)c1 [Compound 96, N-Isopropyl-5-(3-(4-(pyridin-3-yl)-1H-imidazo[4,5-c]pyridin-2-yl)-1H-pyrazolo[4,3-b]pyridin-5-yl)pyridin-3-amine] | 54 | 1250 | 10 | 
9 | Cc1ccncc1-c1ccc2[nH]nc(-c3nc4c(-c5ccncc5)nccc4[nH]3)c2n1 [Compound 117, 5-(4-Methylpyridin-3-yl)-3-(4-(pyridin-4-yl)-1H-imidazo[4,5-c]pyridin-2-yl)-1H-pyrazolo[4,3-b]pyridine] | 53 | > 10000 | 2700 | 0
10 | CCNCc1cncc(-c2ccc3[nH]nc(-c4nc5c(-c6ccccn6)nccc5[nH]4)c3n2)c1 [Compound 146, N-((5-(3-(4-(Pyridin-2-yl)-1H-imidazo[4,5-c]pyridin-2-yl)-1H-pyrazolo[4,3-b]pyridin-5-yl)pyridin-3-yl)methyl)ethanamine] | 28 | 1040 |  | 
11 | CCC(=O)Nc1cncc(-c2ccc3[nH]nc(-c4nc5c(-c6cccs6)nccc5[nH]4)c3n2)c1 [Compound 337, N-(5-(3-(4-(Thiophen-2-yl)-1H-imidazo[4,5-c]pyridin-2-yl)-1H-pyrazolo [4,3-b]pyridin-5-yl)pyridin-3-yl)propionamide] | 179 | 1080 | 7 | 
12 | CCC(=O)Nc1cncc(-c2ccc3[nH]nc(-c4nc5c(-c6cccc(F)c6)nccc5[nH]4)c3n2)c1 [Compound 1, N-(5-(3-(4-(3-Fluorophenyl)-1H-imidazo[4,5-c]pyridin-2-yl)-1H-pyrazolo [4,3-b]pyridin-5-yl)pyridin-3-yl)propionamide] | 95 | > 10000 | 5000 | 0
13 | Fc1cccc(-c2nccc3[nH]c(-c4n[nH]c5ccc(-c6cncc(CN7CCC(F)(F)C7)c6)nc45)nc23)c1 [Compound 26, 5-(5-((3,3-Difluoropyrrolidin-1-yl)methyl)pyridin-3-yl)-3-(4-(3-fluorophenyl)-1H-imidazo[4,5-c]pyridin-2-yl)-1H-pyrazolo[4,3-b]pyridine] | 58 | 3210 | 30 | 
14 | CCC(=O)Nc1cncc(-c2ccc3[nH]nc(-c4nc5c(N6CCCCC6)nccc5[nH]4)c3n2)c1 [Compound 169, N-(5-(3-(4-(Piperidin-1-yl)-1H-imidazo[4,5-c]pyridin-2-yl)-1H-pyrazolo [4,3-b]pyridin-5-yl)pyridin-3-yl)propionamide] | 69 | 7890 | 30 | 
15 | CCCCC(=O)Nc1cncc(-c2ccc3[nH]nc(-c4nc5c(-c6ccoc6)nccc5[nH]4)c3n2)c1 [Compound 327, N-(5-(3-(4-(Furan-3-yl)-1H-imidazo[4,5-c]pyridin-2-yl)-1H-pyrazolo[4,3-b]pyridin-5-yl)pyridin-3-yl)pentanamide] | 91 | > 10000 | 10 | 0
16 | CC(C)(C)CC(=O)Nc1cncc(-c2ccc3[nH]nc(-c4nc5cnccc5[nH]4)c3n2)c1 [Compound 268, N-(5-(3-(1H-Imidazo[4,5-c]pyridin-2-yl)-1H-pyrazolo[4,3-b]pyridin-5-yl)pyridin-3-yl)-3,3-dimethylbutanamide] | 54 | > 10000 | 10 | 0
